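Method: 48-hour compound exposure of cells in 96-well plates, five concentrations, linear interpolation of endpoints. Here, GI50 denotes the concentration required for 50% inhibition of growth.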 Activity calls are given as the source filed them. No stated cut-off is given here; in the data, active = GI50 up to about 1.1 µM and inactive = higher.
Tests used:
Test in all cases: NCI anticancer screen, dose series, 48 h
[1] = tested on: A549
[2] = tested on: M14
[3] = tested on: RXF 393
[4] = tested on: HOP-62
[5] = tested on: LXFL 529
[6] = tested on: IGROV-1
[7] = tested on: SNB-75
[8] = tested on: KM12
[9] = tested on: SF-295
[10] = tested on: SK-OV-3
[11] = tested on: SK-MEL-5
[12] = tested on: UACC-257
[13] = tested on: SN12C
[14] = tested on: RPMI-8226
[15] = tested on: UO-31
[16] = tested on: SNB-19

Measured: GI50

COC(=O)C(=O)C(C(=O)C=C(C)C)C(=O)C(=O)Nc1ccc(Cl)cc1C (configuration not stated)
inactive: [1] > 100 µM | [2] > 100 µM | [3] > 100 µM | [4] > 100 µM | [5] > 100 µM | [6] > 100 µM | [7] > 100 µM | [8] > 100 µM | [9] > 100 µM | [10] > 100 µM | [11] > 100 µM | [12] > 100 µM | [13] > 100 µM | [14] 70 µM | [15] > 100 µM | [16] > 100 µM

CC1(C)C2CCC13C(=O)C1OC3(C2)C2C(=O)N(c3ccccc3)C(=O)C12 (configuration not stated)
inactive: [1] > 100 µM | [2] > 100 µM | [3] > 100 µM | [4] > 100 µM | [5] > 100 µM | [6] > 100 µM | [7] > 100 µM | [8] > 100 µM | [9] > 100 µM | [10] > 100 µM | [11] > 100 µM | [12] > 100 µM | [13] > 100 µM | [14] > 100 µM | [15] > 100 µM | [16] > 100 µM

N/N=C1\c2ccccc2C2/C(=N\N)c3ccccc3C12 (configuration not stated)
inactive: [1] > 100 µM | [2] > 100 µM | [3] > 100 µM | [5] > 100 µM | [6] > 100 µM | [7] 56.1 µM | [8] > 100 µM | [9] > 100 µM | [10] > 100 µM | [11] > 100 µM | [12] > 100 µM | [13] > 100 µM | [14] > 100 µM | [15] > 10 µM | [16] > 100 µM

NS(=O)(=O)c1ccc(NC(=O)c2cccn3c(=O)c4ccccc4nc23)cc1
inactive: [1] > 100 µM | [2] > 100 µM | [3] > 100 µM | [4] > 100 µM | [5] > 100 µM | [6] > 100 µM | [7] > 100 µM | [8] 41.2 µM | [9] > 100 µM | [10] > 100 µM | [11] > 100 µM | [12] > 100 µM | [13] > 100 µM | [14] > 100 µM | [15] 85.5 µM | [16] > 100 µM

C/C=C(/CCC1NCCC2c3ccccc3NC12)[Si](C)(C)C (configuration not stated)
inactive: [1] 14.6 µM | [2] 3.66 µM | [3] 6.53 µM | [4] 15.2 µM | [5] 3.65 µM | [6] 12.8 µM | [7] 9.73 µM | [8] 4.52 µM | [9] 15.6 µM | [10] 15.7 µM | [11] 12.8 µM | [12] 4.38 µM | [13] 11.7 µM | [14] 2.84 µM | [15] 7.08 µM | [16] 15.5 µM

Cc1c(-c2nnc(-c3ccc(Cl)cc3)o2)c(=O)n(-c2ccccc2)n1C
inactive: [1] > 100 µM | [2] > 100 µM | [3] > 100 µM | [4] > 100 µM | [5] > 100 µM | [6] > 100 µM | [7] > 100 µM | [8] > 100 µM | [9] > 100 µM | [10] > 100 µM | [12] > 100 µM | [13] > 100 µM | [14] > 100 µM | [15] > 100 µM | [16] > 100 µM

CCCCCC/C=C1\CCC(CN2CCCC2)C1=O (configuration not stated)
inactive: [1] 20.5 µM | [2] 18.6 µM | [3] 19.4 µM | [4] 18.7 µM | [5] 3.85 µM | [6] 19.7 µM | [7] 20.9 µM | [8] 3.56 µM | [9] 18.9 µM | [10] 18.7 µM | [11] 18.6 µM | [12] 17.9 µM | [13] 12.9 µM | [14] 2.01 µM | [15] 18.9 µM | [16] > 38.5 µM

O=C1c2c(c3c4ccccc4[nH]c3c3[nH]c4ccccc4c23)C(=O)N1Cc1ccccc1
inactive: [1] 3.48 µM | [2] 3.31 µM | [3] 1.51 µM | [4] 3.95 µM | [5] 3.44 µM | [6] 4.09 µM | [7] 3.09 µM | [8] 3.08 µM | [9] 3.9 µM | [10] 2.96 µM | [11] 1.85 µM | [12] 3.75 µM | [13] 2.1 µM | [14] 2.36 µM | [15] 2.53 µM | [16] 2.8 µM

COC(=O)CC[C@]12C[C@]13CC[C@]1(C)C4C(C)C[C@]5(CC(C)C(=O)O5)OC4CC1(C)C3CCC2C(C)(C)O (some centres not stated)
inactive: [1] > 100 µM | [2] > 100 µM | [3] 46.8 µM | [4] 45.6 µM | [5] 55.2 µM | [6] 65.6 µM | [7] 75 µM | [8] 48.3 µM | [9] > 100 µM | [10] > 100 µM | [11] 35.6 µM | [12] 67.1 µM | [13] 61.5 µM | [14] 25.4 µM | [15] 59.2 µM | [16] 51.2 µM
